Reference: US12589087B2, “Enantiomer selective action on neurotransmission” (The Board of Trustees of the Leland Stanford Junior …, priority 2021, dated 2026)

Legend:
human glutaminase GLS1 = target: T1, human glutaminase GLS1 (Homo sapiens, UniProt O94925); assay: Catalysis of 2MeGln hydrolysis by GLS1 glutaminase; assay type: biochemical; conditions: 10 mM substrate, 5 ng/mL enzyme, phosphate pH 7.4
T1 construct: purchased Sigma SRP0516
T1 sequence (O94925 55-669): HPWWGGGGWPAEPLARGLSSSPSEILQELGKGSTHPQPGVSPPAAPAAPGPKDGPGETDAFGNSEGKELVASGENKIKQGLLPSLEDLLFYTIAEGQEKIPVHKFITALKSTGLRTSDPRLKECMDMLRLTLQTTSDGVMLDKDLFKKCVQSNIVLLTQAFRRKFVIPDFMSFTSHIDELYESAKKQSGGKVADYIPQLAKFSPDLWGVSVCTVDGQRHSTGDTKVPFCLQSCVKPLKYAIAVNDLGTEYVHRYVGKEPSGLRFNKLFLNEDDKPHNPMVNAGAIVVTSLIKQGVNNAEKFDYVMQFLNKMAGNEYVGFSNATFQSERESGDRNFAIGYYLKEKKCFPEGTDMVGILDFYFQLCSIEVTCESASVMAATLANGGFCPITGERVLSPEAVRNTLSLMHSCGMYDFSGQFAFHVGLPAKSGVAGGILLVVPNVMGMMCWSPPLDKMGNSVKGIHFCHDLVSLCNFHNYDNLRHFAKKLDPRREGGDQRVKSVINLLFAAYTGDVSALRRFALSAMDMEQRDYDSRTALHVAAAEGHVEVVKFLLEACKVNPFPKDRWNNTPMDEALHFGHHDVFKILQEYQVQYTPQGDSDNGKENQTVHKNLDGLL
Method: The procedure was adapted from an existing protocol. To a reaction mixture in a 1.5 mL microcentrifuge tube containing 10 mM rac-2MeGln or L-Gln-^13C2 in 100 mM phosphate pH 7.4 buffer made in 20% atom ^18O water, recombinant GLS1 (final concentration: 5 ng/mL) was added. The tubes were incubated in a preheated thermomixer at 37° C. and periodically shaken at 600 rpm (30 s on, 30 s off). 5 μL aliquots were collected in triplicate every 5 min and immediately diluted with 195 μL of cold 60% ACN containing 10 μM Glu-d5 and Gln-d5 as internal standards in a 96 well plate. After collecting all samples, the plate was shaken at 1000 rpm for 5 min at room temperature, and then stored at −80° C. Before analysis the plate was thawed and 10 μL aliquots of the extracted reaction mixtures were diluted with 190 μL of 90% acetonitrile.
The quantification of the newly formed 2MeGlu in the presence of the preexisting trace amounts was performed in the following way. Peak area ratio of Glu-^13C2 to Glu-^13C2^18O was calculated in all samples containing Glu-^13C2. The mean ratio value was then applied to calculate the hypothetical peak area of the newly formed 2MeGlu based on the directly measured 2MeGlu-^18O peak area. The ratio of the newly formed 2MeGlu peak area and the total 2MeGlu peak area was applied to calculate the concentration of the newly formed 2MeGlu from the total 2MeGlu concentration determined directly using the calibration curve.

[1] = test system: murine primary cerebral cortical neuron cultures; assay: Neuronal transport and metabolism of 2MeGln; assay type: cell-based, mouse; conditions: 1 mM substrate, 2 h, 37° C., neurons
Method: The procedure was adapted from an existing protocol. Wild-type (WT) C57BL/6J mating pairs were housed according to Stanford IACUC protocol. On day P0, pups were euthanized and brains dissected in cold HBSS (without Ca^2+ or Mg^2+). The forebrain was microdissected to isolate the cortex and hippocampus. These brain regions were minced in cold HBSS before trypsinization at 37° C. for 9 minutes, followed by trituration, through 2 glass polished Pasteur pipettes. The resulting cell suspension was passed through a 100 μm filter to isolate single cells which were sedimented at 250 g for 5 minutes. The cell pellet was then resuspended in complete Neural Basal Media (Neural Basal Media+Glutamax+B-27 Plus Supplement+Pen/Strep)+10% FBS, counted using a hemocytometer and plated at 1×10^6 cells per mL into a 24 well plate (1 mL per well) coated with poly-D-lysine and laminin. Cultures were grown at 37° C./5% CO2 in a tissue culture incubator. Media was exchanged 50% on day 1 in vitro (1 DIV) with fresh complete Neural Basal Media without FBS and thereafter every other day with the same media. On 3 DIV the media was spiked with 2 μM AraC to limit glial growth. On 10 DIV the media was completely replaced with 500 μL Neural Basal Media containing B-27 Plus Supplement+Pen/Strep without added Glutamax but instead containing 1 mM substrate at 37° C. for 2 h. […]

Compound: NC(=O)CC[C@H](N)C(=O)O [Gln, L-glutamine, reference compound]
- apparent reaction rate of GLS1 hydrolysis (human glutaminase GLS1): 65 µM/min
- intracellular [1,2-13C]Gln, lower than 2MeGln in corresponding samples [1]: 2 fold
